Experimental data from US20050038113A1, “Valproic acid and derivatives for the combinatorial therapeutic treatment of human cancers and for the treatment of tumor metastasis and minimal residual disease” (G2M Cancer Drugs AG, priority 2001, published 2005).

Tests used:
[1] = system: primary AML blasts from AML patients; test: ex vivo differentiation, viability and apoptosis of leukemic blasts; type: cell-based, human; settings: for myeloid differentiation: M0, M2 and M4 FAB subtypes
Method: Each point represents the mean of a set of data determined in triplicate (Example 15). VPA may cause synergistic therapeutic responses.
(§1) Cases were classified according to the French-American-British (FAB) classification (Bennett et al., Ann Intern Med 103, 1985). Cytogenetic analysis and RT-PCR tests were performed to rule out the presence of the APL associated fusion genes according to standard methods as described (Mandelli et al., Blood 90, 1997; Mancini et al., Br J Haematol. 91, 1995; Grimwade et al., Blood 90, 1999).

Kasumi-1 cells = test: viability, cell cycle and myeloid differentiation (morphology, NBT dye reduction); type: cell-based, human
Method: Cell numbers were evaluated and quantified by direct cell counting (trypan blue dye exclusion method) using a hematocytometer chamber and light microscopy. Morphological examination was performed by Wright-Giemsa stained cytospins; nitroblue tetrazolium (NBT) dye reduction assay, respectively. Each point represents the mean of a set of data determined in triplicate (Example 15).
as §1

[2] = used as an antiepileptic drug during pregnancy; cited from earlier work
Renca-lacZ cells = test: in vivo mouse model of renal carcinoma lung metastasis (X-Gal staining); parameters: species or system Balb/c mice; settings: 2×400 mg/kg/day i.p. Na-VPA; Renca-lacZ cells into tail vein; vs glucose solution
Text: Mouse renal carcinoma cells (Renca) were established from a spontaneously arising kidney tumor in Balb/c mice. These cells efficiently form tumors in the lung upon transplantation into Balb/c mice through the tail vein and the tumorigenic properties of Renca cells have been well established (Murphy, et al., 1973, J. Natl. Cancer Inst., 50: 1013-1025; Hrushesky et al., 1973, J. Surg. Res., 15: 327-332; Williams et al., 1981, Res. Comm. Chem. Pathol. Pharmacol., 34: 345-349). The circulating tumor cells in this model setting represent a mimicry of situations frequently found in tumor patients when residual tumor cells are circulating in a patient's body and finally invade and home in various organs to grow as metastatic tumors. The inhibition of such minimal residual tumor diseases is one of the major aims of modern tumor therapy and can be experimentally examined in the in vivo model used here. Renca cells and the transfected cell clone Renca-lacZ (encoding for β-galactosidase) were grown in RPMI-1640 supplemented with 10% fetal calf serum (FCS). For metastasis formation in recipient mice […] Renca-lacZ cells in 100 μl PBS were injected into the lateral tail vein of female Balb/c mice at 4 to 6 weeks of age. […] Metastatic surface nodules were analyzed under a dissecting microscope and representative pictures were taken and are presented in FIG. 9.

[3] = system: MDA-MB468 breast carcinoma cells; test: MTT cell viability assay; type: cell-based, Human
Method: (§2) Human MDA-MB468, MDA-MB453 and SKBR3 breast carcinoma cells and A431 squamous cell carcinoma cells were maintained in Dulbecco's modified Eagle's medium (DMEM, BioWhittaker, Verviers, Belgium) supplemented with 10% heat inactivated fetal bovine serum (FBS), 2 mM L-glutamine, 100 units/ml penicillin, and 100 μg/ml streptomycin.
(§3) Tumor cells were seeded in 96 well plates at a density of 1×10^4 cells/well in normal growth medium. […] Control cells were grown in the absence of valproic acid or antibodies. 10 μl of 10 mg/ml 3-(4,5-dimethylthiazole-2-yl)-2,5 diphenyltetrazolium bromide (MTT) (Sigma, Deisenhofen, Germany) in PBS were added to each well and the cells were incubated for another 3 h. Cells were lysed by the addition of 90 μl of lysis buffer (20% SDS in 50% dimethyl formamide, pH 4.7). After solubilization of the formazan product, the absorption at 590 nm was determined in a microplate reader (Dynatech, Denkendorf, Germany) and the relative amount of viable cells in comparison to cells cultured without the addition of valproic acid or antibodies was calculated.

[4] = system: MDA-MB453 breast carcinoma cells; test: MTT cell viability assay; type: cell-based, Human; settings: 70 h
Method: as §2, §3

[5] = combination of VPA plus RA compared to VPA or RA alone

Question: Which results are given for `CCCC(CCC)C(=O)O` [VPA, 2-propylpentanoic acid]?
Answer: myeloid differentiation ([1]; VPA as a single agent): partial myeloid differentiation; positive cells in the NBT dye reduction assay ([1]; VPA in combination with RA): up to 65%; myeloid differentiation of blasts from primary or relapsed AMLs ([1]; VPA in combination with RA, 3 and 2 cases studied): induced myeloid differentiation; myeloid differentiation ([1]; VPA in combination with RA): complete and thus synergistic myeloid differentiation; induction of apoptosis [1, 5]: strongly enhanced, often in a synergistic fashion; apoptosis of AML blasts (FACS, propidium-iodide) ([1]; single agent, 4 cases tested): effective in inducing apoptosis; myeloid differentiation (Kasumi-1 cells; VPA as a single agent): partial myeloid differentiation; myeloid differentiation (Kasumi-1 cells; VPA in combination with RA): complete and thus synergistic myeloid differentiation; positive cells in the NBT dye reduction assay (Kasumi-1 cells; VPA in combination with RA): up to 65%; viability (Kasumi-1 cells; VPA in combination with RA): additive effect; cell cycle analysis (Kasumi-1 cells; [5]): enhanced cell cycle shift into G1 arrest; birth defects (neural tube closure defects and other malformations) in born children [2]: a few percent; formation of lung metastasis (number and size of metastatic nodules) (Renca-lacZ cells): effectively inhibited the formation of lung metastasis; cell viability, combination treatment ([3]; 3 mM VPA + 2 μg/ml c225, 70 h): synergistic reduction of cell viability; cell viability ([3]; single reagent, 70 h, valproic acid 3 mM, c225 2 μg/ml): inhibit the viability; cell viability, combination treatment ([4]; 3 mM VPA + 2 μg/ml Herceptin): synergistic reduction of cell viability; cell viability ([4]; single reagent, valproic acid 3 mM, Herceptin 2 μg/ml): inhibit the viability
